The supplement of paper PMC10307832

Experiments:
Test in all cases: relative viability (nuclei count vs DMSO), 5 days (fraction); higher = more cells survive
IU1-47 + Decitabine = compound: CC1=CC(=C(N1C2=CC=C(C=C2)Cl)C)C(=O)CN3CCCCC3 [IU1-47] + Nc1ncn([C@H]2C[C@H](O)[C@@H](CO)O2)c(=O)n1 [Decitabine] (partner 2 µM)
Method in brief: (§1)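 Relative viability divides the nuclei count in treated wells by that in vehicle wells. Lung cancer cell lines were seeded in 1536-well plates, dosed by pin tool the next day, and fixed and stained after 5 days in one step with final 0.05% Triton X-100, 1% formaldehyde and 1 ug/ml Hoechst. Dosing was a single drug or a fixed anchor-drug dose plus five library-drug doses (not always all listed) in √10 steps, and values are medians of duplicate plates imaged at 4×.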

FG-4592 + Linsitinib = compound: Cc1nc(C(=O)NCC(=O)O)c(O)c2ccc(Oc3ccccc3)cc12 [FG-4592] + C[C@]1(O)C[C@@H](c2nc(-c3ccc4ccc(-c5ccccc5)nc4c3)c3c(N)nccn32)C1 [Linsitinib] (partner 1 µM)
Method in brief: as §1

IU1-47 + Phenformin = compound: CC1=CC(=C(N1C2=CC=C(C=C2)Cl)C)C(=O)CN3CCCCC3 [IU1-47] + N=C(N)NC(=N)NCCc1ccccc1 [Phenformin] (partner 250 µM)
Method in brief: as §1

IU1-47 + Luminespib = compound: CC1=CC(=C(N1C2=CC=C(C=C2)Cl)C)C(=O)CN3CCCCC3 [IU1-47] + CCNC(=O)c1noc(-c2cc(C(C)C)c(O)cc2O)c1-c1ccc(CN2CCOCC2)cc1 [Luminespib] (partner 0.01 µM)
Method in brief: as §1

| Cell Line | relative viability (IU1-47 + Decitabine; first compound 0.08 µM) | relative viability (IU1-47 + Decitabine; first compound 0.253 µM) | relative viability (IU1-47 + Decitabine; first compound 0.8 µM) | relative viability (IU1-47 + Decitabine; first compound 2.53 µM) | relative viability (IU1-47 + Decitabine; first compound 8 µM) | relative viability (FG-4592 + Linsitinib; first compound 0.08 µM) | relative viability (FG-4592 + Linsitinib; first compound 0.253 µM) | relative viability (FG-4592 + Linsitinib; first compound 0.8 µM) | relative viability (FG-4592 + Linsitinib; first compound 2.53 µM) | relative viability (FG-4592 + Linsitinib; first compound 8 µM) | relative viability (IU1-47 + Phenformin; first compound 0.08 µM) | relative viability (IU1-47 + Phenformin; first compound 0.253 µM) | relative viability (IU1-47 + Phenformin; first compound 0.8 µM) | relative viability (IU1-47 + Phenformin; first compound 2.53 µM) | relative viability (IU1-47 + Phenformin; first compound 8 µM) | relative viability (IU1-47 + Luminespib; first compound 0.08 µM) | relative viability (IU1-47 + Luminespib; first compound 0.253 µM) | relative viability (IU1-47 + Luminespib; first compound 0.8 µM) | relative viability (IU1-47 + Luminespib; first compound 8 µM) | relative viability (IU1-47 + Luminespib; first compound 2.53 µM) |
| --- | --- | --- | --- | --- | --- | --- | --- | --- | --- | --- | --- | --- | --- | --- | --- | --- | --- | --- | --- | --- |
| HCC-15 | 0.619 | 0.586 | 0.63 | 0.552 | 0.461 | 0.874 | 0.805 | 0.93 | 0.831 | 0.914 | 0.482 | 0.497 | 0.557 | 0.491 | 0.432 | 0.442 | 0.379 | 0.389 | 0.358 |  |
| HCC-44 | 0.982 | 0.938 | 0.966 | 0.917 | 1.03 | 0.671 | 0.603 | 0.569 | 0.732 | 0.661 | 0.167 | 0.183 | 0.143 | 0.221 | 0.183 | 1.17 | 1.03 | 1.11 | 1.21 | 0.987 |
| COR-L23 | 0.337 | 0.45 | 0.481 | 0.432 | 0.436 | 0.832 | 0.746 | 0.915 | 0.913 | 0.912 | 0.414 | 0.45 | 0.472 | 0.438 | 0.492 | 0.836 | 0.85 | 0.71 | 0.675 | 0.817 |
| NCI-H727 | 0.875 | 0.894 | 0.989 | 0.722 | 0.866 | 0.298 | 0.307 | 0.3 | 0.268 | 0.271 | 0.675 | 0.712 | 0.56 | 0.63 | 0.387 | 0.356 | 0.241 | 0.803 | 0.293 | 0.365 |
| NCI-H2087 | 0.317 | 0.256 | 0.311 | 0.228 | 0.23 | 0.865 | 0.713 | 1.13 | 0.878 | 1.14 | 0.469 | 0.503 | 0.548 |  | 0.441 | 0.194 | 0.166 | 0.18 | 0.163 |  |
| BEN | 0.713 | 0.729 | 0.848 | 0.507 | 0.668 | 0.85 | 0.748 | 0.692 | 0.934 | 0.602 | 0.263 | 0.24 | 0.27 |  | 0.275 | 0.362 | 0.459 | 0.414 | 0.344 |  |
| LCLC-103H | 0.793 | 0.731 | 0.724 | 0.725 | 0.751 | 0.969 | 1.1 | 0.89 | 1.1 | 0.854 | 0.334 | 0.369 | 0.326 | 0.423 | 0.298 | 1.11 | 0.982 | 1.03 | 0.989 | 0.818 |
| EKVX | 0.376 | 0.339 | 0.364 |  | 0.352 | 1.01 | 0.916 | 0.948 | 0.989 | 0.989 | 0.24 | 0.262 | 0.263 | 0.259 | 0.252 | 1.01 | 1.05 | 0.881 | 0.978 | 1.02 |
| LXF-289 | 0.377 | 0.367 | 0.397 | 0.367 | 0.346 | 0.972 | 0.947 | 1.02 | 0.968 | 1.02 | 0.533 | 0.563 | 0.541 | 0.517 | 0.439 | 0.822 | 0.629 | 0.916 | 0.468 | 0.5 |
| ABC-1 | 1.23 | 1.32 | 0.922 |  | 1.19 | 0.92 |  | 0.722 | 0.8 | 0.844 | 0.212 | 0.234 | 0.202 |  | 0.247 | 0.957 | 1.01 | 1.02 | 0.733 |  |
| NCI-H650 | 0.369 | 0.333 | 0.27 | 0.334 | 0.291 | 0.884 | 0.704 | 0.669 | 0.724 | 0.631 | 0.489 | 0.483 | 0.466 | 0.491 | 0.476 | 0.849 | 0.81 | 0.831 | 0.828 | 0.671 |
| NCI-H2085 | 0.54 | 0.549 | 0.566 | 0.519 | 0.478 | 0.804 | 0.861 | 0.758 | 0.878 | 0.815 | 0.736 | 0.711 | 0.713 | 0.771 | 0.675 | 0.446 | 0.5 | 0.522 | 0.318 | 0.446 |
| NCI-H1793 | 0.53 |  | 0.538 | 0.507 | 0.426 | 0.732 | 0.78 |  | 1.01 | 0.856 | 0.419 | 0.259 | 0.475 |  | 0.352 | 0.177 | 0.188 | 0.165 | 0.171 |  |
| LC-2-ad | 0.996 | 0.788 | 0.792 |  | 0.78 | 0.81 | 0.757 | 0.878 | 0.816 | 0.911 | 0.616 | 0.607 | 0.577 | 0.558 | 0.57 | 1.23 | 1.04 | 0.883 | 1.15 | 0.766 |
| COR-L 105 | 0.793 | 0.624 | 0.677 | 0.751 | 0.66 | 0.897 | 0.738 | 1.12 | 1.08 | 0.997 | 0.418 | 0.438 | 0.506 | 0.501 | 0.454 | 0.775 | 0.673 | 1 | 0.696 | 0.809 |
